Earlier results in paper PMC5742115, “Pharmacophore Modeling and in Silico/in Vitro Screening for Human Cytochrome P450 11B1 and Cytochrome P450 11B2 Inhibitors” (Frontiers in Chemistry, 2017).

Tested on: CYP11B2
Conditions: Figure 2; ref Yin et al., 2012; Emmerich et al., 2013; Gobbi et al., 2016; read-out: hCYP11B2 IC50; cited from earlier work

`O=C1CCc2cc(C(C3CC3)n3ccnc3)cc3c2N1CC3` (stereo not shown) [Compound 2] and `Cc1cncc(Cc2ccc(-c3ccccc3)nc2)c1` [Compound 1] are within 1.5-fold of each other in IC50: 24 nM for the first, 33 nM for the second.

Same assay, conditions: reported activity, supplementary Table 1; ref Blass, 2013a; read-out: CYP11B2 IC50; cited from earlier work

In the case of `Cc1nnc2n1-c1c(Cl)cc(-c3cnccc3C3CC3)cc1CC2` [CHEMBL2331703], the IC50 is listed as 48 nM.

Same assay, conditions: reported activity, supplementary Table 1; ref Blass, 2013b; read-out: CYP11B2 IC50; cited from earlier work

In the case of `Fc1ccc(Cn2ccnc2)cn1` [CHEMBL2331707], the IC50 is listed as 1740 nM.

Same assay, conditions: reported activity, supplementary Table 1; ref Emmerich et al., 2013; read-out: CYP11B2 IC50; cited from earlier work

First: c1ccc2c(-c3ccc(Cn4ccnc4)cn3)cccc2c1 [CHEMBL2011253]
Second: c1ccc(-c2ncc(Cn3ccnc3)c3ccccc23)cc1 [CHEMBL2417632]
The IC50 of the first is 2.2-fold higher: 656 nM for the first, 302 nM for the second. The second is the more potent here.

For `c1ccc(-c2cncc(Cc3ccc(-c4ccccc4)nc3)c2)cc1` [CHEMBL2417616], the IC50 is given as 0.5 nM.

Same assay, conditions: reported activity, supplementary Table 1; ref Gobbi et al., 2013; read-out: CYP11B2 IC50; cited from earlier work

First: O=c1c2ccccc2oc2cccc(Cn3ccnc3)c12 [CHEMBL1083652]
Second: O=c1c2ccccc2oc2c(I)ccc(Cn3ccnc3)c12 [CHEMBL2333327]
The IC50 of the first is 4.9-fold higher: 114 nM for the first, 23.5 nM for the second.

Same assay, conditions: reported activity, supplementary Table 1; ref Heim et al., 2008; read-out: CYP11B2 IC50; cited from earlier work

Compared with `COc1ccc2cc(-c3cncc(C(C)O)c3)ccc2c1` (stereo not shown) [CHEMBL500395], `COCc1cncc(-c2ccc3cc(OC)ccc3c2)c1` [CHEMBL500421] is 2.5-fold lower in IC50: 0.5 nM for the first, 0.2 nM for the second. The second is the more potent here.

For `COCc1ccncc1-c1ccc2cc(OC)ccc2c1` [CHEMBL500676], the IC50 is listed as 2.2 nM.

Same assay, conditions: reported activity, supplementary Table 1; ref Hille et al., 2011a; read-out: CYP11B2 IC50; cited from earlier work

First: c1ccc2c(-c3ccc(Cn4ccnc4)cn3)cccc2c1 [CHEMBL2011253]
Second: c1ccc2c(-c3ccc(Cn4ccnc4)cn3)csc2c1 [CHEMBL2011433]
The IC50 of the first is 1.8-fold higher: 2080 nM for the first, 1160 nM for the second.

First: c1csc(-c2ccc(Cn3ccnc3)cn2)c1 [CHEMBL2011261]
Second: Oc1ccc(-c2ccc(Cn3ccnc3)cn2)cc1F [CHEMBL2011246]
The IC50 of the first is 5.2-fold higher: 1240 nM for the first, 237 nM for the second.

Same assay, conditions: reported activity, supplementary Table 1; ref Hille et al., 2011b; read-out: CYP11B2 IC50; cited from earlier work

Compared with `c1ccc(C(Cn2ccnc2)(c2ccccc2)c2ccccc2)cc1` [CHEMBL1651508], `c1ccc(-c2cccc(Cn3ccnc3)c2)cc1` [CHEMBL1651497] is 33-fold higher in IC50: 8 nM for the first, 265 nM for the second. The first is the more potent here.

In the case of `Cc1cc(C)c(Cn2ccnc2)c(C)c1` [CHEMBL1649605], the IC50 is given as 30 nM.

Same assay, conditions: reported activity, supplementary Table 1; ref Hu et al., 2012; read-out: CYP11B2 IC50; cited from earlier work

In the case of `O=C1CCc2cc(-c3cccnc3)c(OCc3ccccc3)cc2N1` [CHEMBL2165320], the IC50 is given as 22 nM.

Same assay, conditions: reported activity, supplementary Table 1; ref Lucas et al., 2008b; read-out: CYP11B2 IC50; cited from earlier work

`CCN1C(=O)CCc2cc(-c3cccnc3)ccc21` [CHEMBL457425] and `O=C1CCc2cc(-c3cccnc3)ccc2N1` [CHEMBL62811] are within 1.5-fold of each other in IC50: 22 nM for the first, 28 nM for the second.

For `COc1cncc(-c2ccc3c(c2)CCC(=O)N3C)c1` [CHEMBL457856], the IC50 is listed as 0.2 nM.

Same assay, conditions: reported activity, supplementary Table 1; ref Lucas et al., 2011; read-out: CYP11B2 IC50; cited from earlier work

`O=C1CCc2cc(-c3cncc(C(F)(F)F)c3)cc3c2N1CC3` [CHEMBL1765213] and `O=C1CCc2cc(-c3cncc(O)c3)cc3c2N1CC3` [CHEMBL1765211] are within 1.5-fold of each other in IC50: 5.9 nM for the first, 4.3 nM for the second.

Compared with `CC(C)Oc1cncc(-c2cc3c4c(c2)CCN4C(=O)CC3)c1` [CHEMBL1765210], `O=C1CCc2cc(-c3cncc(-c4ccccc4)c3)cc3c2N1CC3` [CHEMBL1765219] is 1.7-fold lower in IC50: 2.2 nM for the first, 1.3 nM for the second.

Going from `O=C1CCc2cc(-c3cncc(-c4ccc(F)c(F)c4)c3)cc3c2N1CC3` [CHEMBL1765224] to `O=C1CCc2cc(-c3cncc4ccccc34)cc3c2N1CC3` [CHEMBL1765214], the IC50 falls from 2.3 nM to 0.2 nM (11-fold). The second is the more potent here.

Tested on: CYP11B1
Conditions: Figure 2; ref Yin et al., 2012; Emmerich et al., 2013; Gobbi et al., 2016; read-out: hCYP11B1 IC50; cited from earlier work

`O=C1CCc2cc(C(C3CC3)n3ccnc3)cc3c2N1CC3` (stereo not shown) [Compound 2] and `Cc1cncc(Cc2ccc(-c3ccccc3)nc2)c1` [Compound 1] are within 1.5-fold of each other in IC50: 2.2 nM for the first, 2 nM for the second.

Same assay, conditions: reported activity, supplementary Table 1; ref Blass, 2013a; read-out: CYP11B1 IC50; cited from earlier work

In the case of `Cc1nnc2n1-c1c(Cl)cc(-c3cnccc3C3CC3)cc1CC2` [CHEMBL2331703], the IC50 is listed as 6930 nM.

Same assay, conditions: reported activity, supplementary Table 1; ref Blass, 2013b; read-out: CYP11B1 IC50; cited from earlier work

In the case of `Fc1ccc(Cn2ccnc2)cn1` [CHEMBL2331707], the IC50 is listed as 72 nM.

Same assay, conditions: reported activity, supplementary Table 1; ref Emmerich et al., 2013; read-out: CYP11B1 IC50; cited from earlier work

`c1ccc2c(-c3ccc(Cn4ccnc4)cn3)cccc2c1` [CHEMBL2011253] and `c1ccc(-c2ncc(Cn3ccnc3)c3ccccc23)cc1` [CHEMBL2417632] are within 1.5-fold of each other in IC50: 68 nM for the first, 87 nM for the second.

For `c1ccc(-c2cncc(Cc3ccc(-c4ccccc4)nc3)c2)cc1` [CHEMBL2417616], the IC50 is given as 1.3 nM.

Same assay, conditions: reported activity, supplementary Table 1; ref Gobbi et al., 2013; read-out: CYP11B1 IC50; cited from earlier work

Compared with `O=c1c2ccccc2oc2cccc(Cn3ccnc3)c12` [CHEMBL1083652], `O=c1c2ccccc2oc2c(I)ccc(Cn3ccnc3)c12` [CHEMBL2333327] is 5.2-fold lower in IC50: 99.1 nM for the first, 19.2 nM for the second.

Same assay, conditions: reported activity, supplementary Table 1; ref Heim et al., 2008; read-out: CYP11B1 IC50; cited from earlier work

Compared with `COc1ccc2cc(-c3cncc(C(C)O)c3)ccc2c1` (stereo not shown) [CHEMBL500395], `COCc1cncc(-c2ccc3cc(OC)ccc3c2)c1` [CHEMBL500421] is 3.2-fold lower in IC50: 99 nM for the first, 31 nM for the second.

In the case of `COCc1ccncc1-c1ccc2cc(OC)ccc2c1` [CHEMBL500676], the IC50 is listed as 435 nM.

Same assay, conditions: reported activity, supplementary Table 1; ref Hille et al., 2011a; read-out: CYP11B1 IC50; cited from earlier work

`c1ccc2c(-c3ccc(Cn4ccnc4)cn3)cccc2c1` [CHEMBL2011253] and `c1ccc2c(-c3ccc(Cn4ccnc4)cn3)csc2c1` [CHEMBL2011433] are within 1.5-fold of each other in IC50: 42 nM for the first, 40 nM for the second.

Compared with `c1csc(-c2ccc(Cn3ccnc3)cn2)c1` [CHEMBL2011261], `Oc1ccc(-c2ccc(Cn3ccnc3)cn2)cc1F` [CHEMBL2011246] is 4.4-fold lower in IC50: 75 nM for the first, 17 nM for the second. The second is the more potent here.

Same assay, conditions: reported activity, supplementary Table 1; ref Hille et al., 2011b; read-out: CYP11B1 IC50; cited from earlier work

First: c1ccc(C(Cn2ccnc2)(c2ccccc2)c2ccccc2)cc1 [CHEMBL1651508]
Second: c1ccc(-c2cccc(Cn3ccnc3)c2)cc1 [CHEMBL1651497]
The IC50 of the first is 12-fold lower: 4 nM for the first, 46 nM for the second.

In the case of `Cc1cc(C)c(Cn2ccnc2)c(C)c1` [CHEMBL1649605], the IC50 is given as 24 nM.

Same assay, conditions: reported activity, supplementary Table 1; ref Hu et al., 2012; read-out: CYP11B1 IC50; cited from earlier work

For `O=C1CCc2cc(-c3cccnc3)c(OCc3ccccc3)cc2N1` [CHEMBL2165320], the IC50 is given as 44 nM.

Same assay, conditions: reported activity, supplementary Table 1; ref Lucas et al., 2008b; read-out: CYP11B1 IC50; cited from earlier work

`CCN1C(=O)CCc2cc(-c3cccnc3)ccc21` [CHEMBL457425] and `O=C1CCc2cc(-c3cccnc3)ccc2N1` [CHEMBL62811] are within 1.5-fold of each other in IC50: 5180 nM for the first, 6750 nM for the second.

In the case of `COc1cncc(-c2ccc3c(c2)CCC(=O)N3C)c1` [CHEMBL457856], the IC50 is given as 87 nM.

Same assay, conditions: reported activity, supplementary Table 1; ref Lucas et al., 2011; read-out: CYP11B1 IC50; cited from earlier work

Going from `O=C1CCc2cc(-c3cncc(C(F)(F)F)c3)cc3c2N1CC3` [CHEMBL1765213] to `O=C1CCc2cc(-c3cncc(O)c3)cc3c2N1CC3` [CHEMBL1765211], the IC50 rises from 141 nM to 2040 nM (14-fold).

Going from `CC(C)Oc1cncc(-c2cc3c4c(c2)CCN4C(=O)CC3)c1` [CHEMBL1765210] to `O=C1CCc2cc(-c3cncc(-c4ccccc4)c3)cc3c2N1CC3` [CHEMBL1765219], the IC50 falls from 103 nM to 58 nM (1.8-fold). The second is the more potent here.

Compared with `O=C1CCc2cc(-c3cncc(-c4ccc(F)c(F)c4)c3)cc3c2N1CC3` [CHEMBL1765224], `O=C1CCc2cc(-c3cncc4ccccc34)cc3c2N1CC3` [CHEMBL1765214] is 38-fold lower in IC50: 496 nM for the first, 13 nM for the second.
